Assay [1] in a line: P. falciparum late gametocyte killing, dose response, luminescence (AID 1117278).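 Further: gametocytes exposed to compound for 24 hours.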 It is filed as functional, cell-based.
Assay [2] is described as follows: Jurkat T cell cytotoxicity, dose response, cytotoxicity control for P. falciparum gametocyte viability project, luminescence (AID 1117277).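 Further: potency reflects loss of cellular ATP meaning fewer viable cells.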 The format is functional, cell-based.
The target in assay [3] is Paired box protein Pax-8 (Homo sapiens, UniProt Q06710). The assay is described as follows: inhibitors of PAX8-driven TPO luciferase reporter, dose response, RMG-I cells, cherry-pick (AID 687027).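 Further: luciferase reporter driven by Pax8 target thyroperoxidase promoter measured by SteadyGlo luminescence.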 It is filed as functional, cell-based.
Assay [4] is described as follows: A2780 ovarian cancer cell cytotoxicity, dose response, cytotoxicity control, plate reader, dry powder samples (AID 743046). It is filed as functional, cell-based.
The nature of assay [5]: NIH:OVCAR-3 ovarian cancer cell cytotoxicity, dose response, PAX8 inhibitor project, plate reader, dry powder samples (AID 743044). The format is functional, cell-based.
The nature of assay [6]: cytotoxicity in OVCAR8 ovarian cancer cells, dose response, PAX8 project, cell-based, plate reader, dry powder samples (AID 743197). To be noted: OVCAR-8. The format is functional.
Assay [7] can be described thus: HeLa 2N DNA content increase, dose response, cell-based, IC50 (AID 1117349). It is filed as functional.
Assay [8] is described as follows: Concentration-dependent survival of SW480 colon cancer line, luminescence detection with CellTiter-Glo, half-maximal inhibitory concentration (AID 1117338). The format is functional.
Assay [9] can be described thus: RKO cell viability reduction, dose response, CellTiter-Glo luminescence (AID 1117322). The format is functional. A general note: Cellular ATP, detected with luciferase, serves as a proxy for viable cell number.
Assay [10] is described as follows: cytotoxicity toward Colo320 cells – cell-based, CellTiter-Glo luminescence, IC50, dose response (AID 1117334). It is filed as functional. To be noted: COLO 320.
Assay [11] can be described thus: HeLa 4N DNA content increase, dose response, cell-based, IC50 (AID 1117351). It is filed as functional.
Assay [12] in a line: cytotoxicity toward HT-29 cells – cell-based, CellTiter-Glo luminescence, IC50, dose response (AID 1117330). It is filed as functional.
Assay [13] is described as follows: HCT116 cell viability decrease, GSK3B pretreatment – CellTiter-Glo, IC50, dose response (AID 1117339). The conditions noted are these: HCT-116. The format is functional.
Assay [14] can be described thus: IGROV1 ovarian cancer cell cytotoxicity, dose response, PAX8 inhibitor project, plate reader, dry powder samples (AID 743043). The format is functional, cell-based. The conditions noted are these: IGROV-1.
Assay [15] is described as follows: A375 melanoma cell viability loss, dose response, counter-screen for MITF inhibitor project, CellTiter-Glo luminescence, dry powder, set 4 (AID 624364).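 Further: A375 melanoma cells are MITF independent so this is a counter screen.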 The format is functional, cell-based. The conditions noted are these: A-375. A general note: Counterscreens check selectivity or assay interference.
The nature of assay [16]: A375 melanoma cell cytotoxicity, dose response, counter-screen for MITF inhibitor project, CellTiter-Glo luminescence, dry powder, set 2 (AID 624489).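 Further: actives are compounds lowering A375 viability meaning general cytotoxicity.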 To be noted: A-375. It is filed as functional, cell-based.
Assay [17] concerns the target Protein Tat (Human immunodeficiency virus type 1 group M subtype B (isolate HXB2)(HIV-1), UniProt P04608). The format is functional.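 Further: tat binding to TAR RNA read out by fluorescence polarization.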
Assay [18] can be described thus: inhibitors of PGC1a acetylation in cells, dose response, cell-based, cherry-picked samples (AID 720514).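 Further: potency may reflect raised or lowered acetylation signal.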 The format is functional.
For assay [19], the target named is Mitochondrial peptide methionine sulfoxide reductase (Bos taurus, UniProt P54149). The experiment in a line: Absorbance-based biochemical high throughput dose response assay for activators of Methionine sulfoxide reductase A (MsrA). The format is functional.
Assay [20] addresses T1, Corticotropin-releasing factor receptor 2/Corticotropin-releasing factor-binding protein (Homo sapiens, UniProt P24387+Q13324).
T1 sequence (Q13324 whole entry): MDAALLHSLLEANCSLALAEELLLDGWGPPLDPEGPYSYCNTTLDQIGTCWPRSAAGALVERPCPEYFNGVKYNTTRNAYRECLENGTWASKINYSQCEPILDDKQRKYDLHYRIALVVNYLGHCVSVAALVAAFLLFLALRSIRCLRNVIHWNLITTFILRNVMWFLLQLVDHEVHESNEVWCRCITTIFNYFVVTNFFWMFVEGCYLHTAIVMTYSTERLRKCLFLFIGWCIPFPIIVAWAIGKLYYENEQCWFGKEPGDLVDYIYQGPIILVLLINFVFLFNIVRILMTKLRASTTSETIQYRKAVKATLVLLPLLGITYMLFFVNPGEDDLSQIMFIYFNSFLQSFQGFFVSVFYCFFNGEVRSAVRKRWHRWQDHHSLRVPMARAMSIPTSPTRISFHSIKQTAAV
T1 sequence (P24387 whole entry): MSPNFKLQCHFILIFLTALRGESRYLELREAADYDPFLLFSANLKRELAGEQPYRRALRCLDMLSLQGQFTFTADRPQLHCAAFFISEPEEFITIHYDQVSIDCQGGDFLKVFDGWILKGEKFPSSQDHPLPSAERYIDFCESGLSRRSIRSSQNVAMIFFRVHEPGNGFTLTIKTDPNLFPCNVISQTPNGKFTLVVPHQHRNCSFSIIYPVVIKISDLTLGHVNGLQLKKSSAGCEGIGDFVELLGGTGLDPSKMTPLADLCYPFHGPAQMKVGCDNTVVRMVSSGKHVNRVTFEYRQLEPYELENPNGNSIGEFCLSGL
The experiment in a line: activators of CRF receptor 2 with binding protein – uHTS hits, confirmation (AID 602473). To be noted: read-out: EC50_Mean. It is filed as functional.

The target in assay [21] is T2, Caspase-6 (Homo sapiens, UniProt P55212).
T2 sequence (P55212 whole entry): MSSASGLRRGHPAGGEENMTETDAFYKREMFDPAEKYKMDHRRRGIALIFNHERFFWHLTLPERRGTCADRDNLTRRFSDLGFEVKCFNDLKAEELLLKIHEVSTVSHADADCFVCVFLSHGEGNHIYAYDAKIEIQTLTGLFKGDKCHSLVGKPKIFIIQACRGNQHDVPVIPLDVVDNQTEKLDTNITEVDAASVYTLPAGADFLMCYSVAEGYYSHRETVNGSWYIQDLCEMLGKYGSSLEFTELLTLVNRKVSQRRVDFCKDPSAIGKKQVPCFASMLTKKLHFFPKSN
The experiment in a line: human caspase-6 inhibitors, dose response, biochemical, VEID-R110 fluorescence, cherry-pick (AID 720632).

The target of assay [22] is T3, Histone-lysine N-methyltransferase NSD2 (Homo sapiens, UniProt O96028).
T3 sequence (O96028 whole entry): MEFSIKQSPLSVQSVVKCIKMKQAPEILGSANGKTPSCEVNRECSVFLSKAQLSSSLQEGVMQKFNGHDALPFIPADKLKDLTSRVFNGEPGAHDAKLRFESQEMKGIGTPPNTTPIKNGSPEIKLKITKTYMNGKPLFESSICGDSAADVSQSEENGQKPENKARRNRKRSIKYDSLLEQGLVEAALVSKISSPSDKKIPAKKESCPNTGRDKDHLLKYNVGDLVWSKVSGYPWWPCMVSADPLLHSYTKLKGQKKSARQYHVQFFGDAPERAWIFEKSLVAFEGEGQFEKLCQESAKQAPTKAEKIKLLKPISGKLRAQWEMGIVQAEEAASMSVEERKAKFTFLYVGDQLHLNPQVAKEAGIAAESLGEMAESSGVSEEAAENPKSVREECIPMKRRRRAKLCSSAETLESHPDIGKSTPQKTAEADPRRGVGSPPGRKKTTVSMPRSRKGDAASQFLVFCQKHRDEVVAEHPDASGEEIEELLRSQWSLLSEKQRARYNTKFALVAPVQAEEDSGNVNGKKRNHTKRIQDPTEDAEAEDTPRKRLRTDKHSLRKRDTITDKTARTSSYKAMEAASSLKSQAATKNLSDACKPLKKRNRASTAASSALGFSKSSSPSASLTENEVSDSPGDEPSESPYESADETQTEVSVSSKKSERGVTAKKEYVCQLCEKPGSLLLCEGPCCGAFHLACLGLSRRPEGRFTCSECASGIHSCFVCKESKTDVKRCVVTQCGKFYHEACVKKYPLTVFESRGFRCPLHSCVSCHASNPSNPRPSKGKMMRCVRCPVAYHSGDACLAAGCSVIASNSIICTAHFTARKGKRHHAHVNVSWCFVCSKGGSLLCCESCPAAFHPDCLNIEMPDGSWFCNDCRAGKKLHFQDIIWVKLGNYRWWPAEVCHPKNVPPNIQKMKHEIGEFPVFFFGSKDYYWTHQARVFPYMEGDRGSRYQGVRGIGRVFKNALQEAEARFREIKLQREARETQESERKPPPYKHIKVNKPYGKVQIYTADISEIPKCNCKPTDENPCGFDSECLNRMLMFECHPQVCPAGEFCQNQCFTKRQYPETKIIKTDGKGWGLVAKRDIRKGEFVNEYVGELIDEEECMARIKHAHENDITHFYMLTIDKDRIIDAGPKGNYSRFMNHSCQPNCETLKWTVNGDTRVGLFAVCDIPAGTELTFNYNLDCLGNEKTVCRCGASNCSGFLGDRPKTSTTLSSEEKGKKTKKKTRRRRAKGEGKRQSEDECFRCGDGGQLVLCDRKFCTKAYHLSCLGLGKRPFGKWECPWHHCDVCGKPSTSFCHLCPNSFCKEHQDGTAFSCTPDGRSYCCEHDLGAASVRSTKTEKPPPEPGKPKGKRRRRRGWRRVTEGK
It is filed as biochemical.

Assay [23] concerns the target T4, Caspase-7 (Homo sapiens, UniProt P55210).
T4 sequence (P55210 whole entry): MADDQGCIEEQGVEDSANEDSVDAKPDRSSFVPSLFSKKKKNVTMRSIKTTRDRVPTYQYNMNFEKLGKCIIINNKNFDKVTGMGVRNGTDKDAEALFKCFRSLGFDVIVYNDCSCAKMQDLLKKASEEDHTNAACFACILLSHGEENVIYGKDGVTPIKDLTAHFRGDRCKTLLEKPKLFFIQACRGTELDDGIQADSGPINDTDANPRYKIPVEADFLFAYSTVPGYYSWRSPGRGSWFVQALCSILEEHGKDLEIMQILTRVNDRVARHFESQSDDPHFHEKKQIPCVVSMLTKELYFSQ
The experiment in a line: human caspase-7 inhibitors, dose response, selectivity assay for caspase-6 inhibitor project, biochemical, DEVD-R110 fluorescence, cherry-pick (AID 743295). The format is […].

Assay [24] in a line: cytotoxicity toward HCT116 cells – cell-based, CellTiter-Glo luminescence, IC50, dose response (AID 1117332). The format is functional. To be noted: HCT-116.
A short description of assay [25]: SNU-C1 cell viability reduction, dose response, CellTiter-Glo luminescence (AID 1117323). The format is functional, cell-based.
Assay [26] in a line: CellTiter-Glo luminescent dose response of DLD-1 viability loss (AID 1117352). The format is functional.

Calls of active or inactive are those of the source.

What is called IC50 is the concentration that gives 50% inhibition. One may read the AC50 as the concentration at which the activity in the assay is half-maximal.

Sequence of Paired box protein Pax-8 (Q06710 whole entry): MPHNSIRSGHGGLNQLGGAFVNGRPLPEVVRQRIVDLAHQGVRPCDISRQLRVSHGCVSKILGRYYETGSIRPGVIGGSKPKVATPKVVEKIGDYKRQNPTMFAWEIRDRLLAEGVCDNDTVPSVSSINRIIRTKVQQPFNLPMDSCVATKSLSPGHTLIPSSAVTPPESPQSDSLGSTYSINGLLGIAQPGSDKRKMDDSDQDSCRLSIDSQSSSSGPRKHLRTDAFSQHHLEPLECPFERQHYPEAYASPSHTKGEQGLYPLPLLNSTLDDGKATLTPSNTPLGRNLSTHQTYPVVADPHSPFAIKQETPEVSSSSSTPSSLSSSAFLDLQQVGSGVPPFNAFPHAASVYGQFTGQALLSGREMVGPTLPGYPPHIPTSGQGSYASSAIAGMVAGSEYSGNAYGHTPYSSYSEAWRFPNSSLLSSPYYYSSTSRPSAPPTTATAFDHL
Sequence of Mitochondrial peptide methionine sulfoxide reductase (P54149 whole entry): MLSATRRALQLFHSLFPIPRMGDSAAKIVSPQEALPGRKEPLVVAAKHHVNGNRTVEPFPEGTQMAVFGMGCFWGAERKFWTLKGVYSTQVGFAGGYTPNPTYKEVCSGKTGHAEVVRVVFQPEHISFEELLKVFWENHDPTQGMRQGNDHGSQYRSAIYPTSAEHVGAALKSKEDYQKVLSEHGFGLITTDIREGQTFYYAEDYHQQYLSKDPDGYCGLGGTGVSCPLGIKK
Sequence of Protein Tat (P04608 whole entry): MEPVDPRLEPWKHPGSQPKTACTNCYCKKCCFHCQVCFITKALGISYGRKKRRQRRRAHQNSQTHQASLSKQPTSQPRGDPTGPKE

On to `CCCN(CCC)C(=O)Cn1c(=O)n(CCC(=O)NCCc2ccccc2)c(=O)c2ccccc21`, for which the values for the IC50 in assay [1] and in assay [2] were > 109 µM (inactive) and > 83.3 µM (inactive), respectively.
Take `C[C@H]1CN([C@@H](C)CO)S(=O)(=O)c2ccc(C#Cc3ccccc3F)cc2O[C@@H]1CN(C)CC1CCOCC1`: the AC50 in assay [3] is 10.4 µM (active); in [4], < 0.26 µM (active); in assay [5], 34.1 µM (active); in assay [6], 28.9 µM (active).
In the case of `COc1ccc2cc1Oc1ccc(cc1)C[C@H]1c3c(cc4c(c3Oc3cc5c(cc3OC)CCN(C)[C@@H]5C2)OCO4)CCN1C` [CEPHARANTHINE], the IC50 in assay [7] was > 10 µM (inactive); in assay [8], 0.308 µM (active); in assay [9] it was 3.79 µM (active); in [10], 1.43 µM (active); in assay [11], > 10 µM (inactive); in assay [12] it was 1.36 µM (active). Further, in assay [13], the IC50 was 3.57 µM (active).
Turning to `C[C@@H]1CCCCO[C@H](CN(C)Cc2ccc(C(F)(F)F)cc2)[C@H](C)CN([C@@H](C)CO)C(=O)c2cc(NS(=O)(=O)c3ccc(F)cc3)ccc2O1`, the AC50 in assay [3] is 5.17 µM (active); in [4] it was 55.3 µM (active); in assay [5] it was 24 µM (active); in [14] it was 37 µM (active); in assay [6], 36.9 µM (active).
As for `C[C@@H](NC1=C(Nc2ccccc2)C(=O)c2ccccc2C1=O)c1ccccc1`, the results for the AC50 in assay [15] and in assay [16] were > 70 µM (inactive) and 48.5 µM (active), respectively.
On to `Cc1ccc(CCC(=O)Nc2ccc(S(N)(=O)=O)cc2)o1`, for which the IC50 in assay [17] was > 100 µM (active).
For the compound `O=C1C=CCCN1C(=O)/C=C/c1cccc(C(F)(F)F)c1`, the AC50 in assay [18] is 1.77 µM (active).
In the case of `COCCn1c2nc(=O)n(-c3ccccc3)c(=O)c-2nc2ccccc21`, the EC50 in [19] was 95.4 µM (inactive); in assay [20], 5.14 µM (active). In addition, the figures for the AC50 in assay [21], in assay [22] and in assay [23] were 3.93 µM (active), 12.7 µM (active) and 8.13 µM (active), respectively.
Take `[O-][n+]1ccc(C2CC2)cc1`: the values for the IC50 in assay [1] and in assay [2] were > 109 µM (inactive) and > 83.4 µM (inactive), respectively.
Take `CCCCOC(=O)c1ccc(N)cc1` [BUTAMBEN]: the IC50 in assay [7] is > 10 µM (inactive); in [8] it was 0.586 µM (active); in [9] it was 0.137 µM (active); in [24], > 20 µM (inactive); in [25], > 20 µM (inactive); in assay [10], > 20 µM (inactive). Also, the IC50 was > 10 µM (inactive) in [11], > 20 µM (inactive) in assay [12] and 4.56 µM (active) in assay [26].

For the origin of these results see ChEMBL document CHEMBL1201862, “PubChem BioAssay data set” (2004).
